From PMC3567212 (Biochemistry, 2012)
Positions count from the first letter of the chain named.

Experiments:
[1] = target: T1, Rhizobium etli pyruvate carboxylase (RePC) (Rhizobium etli, UniProt Q2K340, R427K); experiment: coupled spectrophotometric assay; assay type: biochemical
T1 sequence (Q2K340 1-1154 R427K): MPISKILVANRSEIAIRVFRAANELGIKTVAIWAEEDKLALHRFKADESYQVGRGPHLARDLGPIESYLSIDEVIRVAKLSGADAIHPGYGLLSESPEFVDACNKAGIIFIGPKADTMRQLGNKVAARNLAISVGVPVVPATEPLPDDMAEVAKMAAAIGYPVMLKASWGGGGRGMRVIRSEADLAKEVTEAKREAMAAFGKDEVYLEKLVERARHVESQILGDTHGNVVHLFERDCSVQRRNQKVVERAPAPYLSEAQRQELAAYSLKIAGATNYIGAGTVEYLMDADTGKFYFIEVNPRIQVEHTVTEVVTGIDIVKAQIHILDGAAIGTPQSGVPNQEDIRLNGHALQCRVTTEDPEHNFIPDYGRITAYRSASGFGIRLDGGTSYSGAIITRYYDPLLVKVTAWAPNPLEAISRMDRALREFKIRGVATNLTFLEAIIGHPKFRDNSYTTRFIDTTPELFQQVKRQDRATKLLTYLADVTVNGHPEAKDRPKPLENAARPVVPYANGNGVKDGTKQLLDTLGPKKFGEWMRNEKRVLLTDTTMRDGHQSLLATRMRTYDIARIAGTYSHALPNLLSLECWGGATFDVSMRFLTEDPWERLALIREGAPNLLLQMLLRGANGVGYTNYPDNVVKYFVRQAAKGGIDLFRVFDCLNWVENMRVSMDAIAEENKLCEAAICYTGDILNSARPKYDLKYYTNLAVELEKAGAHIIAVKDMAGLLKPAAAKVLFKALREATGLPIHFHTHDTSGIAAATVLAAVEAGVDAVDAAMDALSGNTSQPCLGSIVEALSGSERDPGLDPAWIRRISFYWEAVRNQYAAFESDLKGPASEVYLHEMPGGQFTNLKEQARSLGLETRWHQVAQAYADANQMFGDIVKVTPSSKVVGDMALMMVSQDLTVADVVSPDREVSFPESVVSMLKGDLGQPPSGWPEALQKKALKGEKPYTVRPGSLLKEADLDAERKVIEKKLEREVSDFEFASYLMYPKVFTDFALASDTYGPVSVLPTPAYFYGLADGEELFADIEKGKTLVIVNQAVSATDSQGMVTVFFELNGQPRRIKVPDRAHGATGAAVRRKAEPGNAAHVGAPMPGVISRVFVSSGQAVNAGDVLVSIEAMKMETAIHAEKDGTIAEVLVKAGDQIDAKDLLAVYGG

[2] = target: T2, Rhizobium etli pyruvate carboxylase (RePC) (Rhizobium etli, UniProt Q2K340, R472K); experiment: coupled spectrophotometric assay; assay type: biochemical
T2 sequence (Q2K340 1-1154 R472K): T1 sequence (Q2K340 1-1154 R427K) with K427R, R472K

**Q.** With `N[C@@H](CC(=O)O)C(=O)O` [L-aspartate] as the compound, how does the Ki [1] read?
**A.** Its Ki is 4.5 ± 0.6 mM.

**Q.** And the Ki [2]?
**A.** The Ki was 7 ± 1 mM.
